Experiments:
IRAK4 = biological target: T1, IRAK4 (Homo sapiens, UniProt Q9NWZ3); test: IRAK-4 activity inhibition assay (Caliper); assay type: biochemical; settings: 3.5 nM IRAK4, 1.5 μM Peptide 8, 37 μM ATP
T1 construct: purchased CARNA Bioscience 09-145
T1 sequence (Q9NWZ3 1-460): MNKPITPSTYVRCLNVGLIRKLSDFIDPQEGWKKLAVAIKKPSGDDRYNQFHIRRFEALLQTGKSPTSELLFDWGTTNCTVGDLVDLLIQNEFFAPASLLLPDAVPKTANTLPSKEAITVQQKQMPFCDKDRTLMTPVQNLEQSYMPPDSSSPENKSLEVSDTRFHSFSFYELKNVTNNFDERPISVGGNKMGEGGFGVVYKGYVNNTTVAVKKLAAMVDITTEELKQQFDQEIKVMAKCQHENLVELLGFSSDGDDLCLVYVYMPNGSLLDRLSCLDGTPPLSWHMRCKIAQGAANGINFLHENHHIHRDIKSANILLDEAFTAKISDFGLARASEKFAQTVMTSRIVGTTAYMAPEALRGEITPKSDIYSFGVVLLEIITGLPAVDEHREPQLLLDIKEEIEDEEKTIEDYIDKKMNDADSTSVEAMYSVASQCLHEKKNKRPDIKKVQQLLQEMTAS
Method in brief: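 Mobility-shift (Caliper) assay with 3.5 nM IRAK4 in 50 mM HEPES pH 7.5, 0.0015% Brij-35, 5 mM MgCl2, 1 mM MnCl2, 2 mM DTT. Enzyme preincubated with compound 10 min at room temperature, then 1.5 μM peptide 8 and 37 μM ATP for 40 min. Inhibition from conversion % relative to DMSO and no-enzyme controls; 10-point IC50.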

[1] = test system: TNFα production in human white blood cells (hWBC); test: R848 induced TNFα production in hWBC; assay type: cell-based; settings: 1 uM R848, 20 hours
Procedure: (§1) Compounds of the present invention were also studied in in vitro cytokine production assays. Exemplary protocols follow.
(§2) Human whole blood and hWBC assays: Human whole blood was diluted by combining whole blood with no serum RPMI medium at a ratio of 1:1. 180 ul/well of the diluted whole blood/well was added to a 96 well plate. For WBC assay 100,000 cells/well were seeded in a 96-well plate with a volume of 100 ul/well. To make the compound master plate 9 ul of 30 mM compound solution was added into the wells in the assigned rows, then serial solutions with 4x dilutions were made in DMSO. That is, 9 uL of 100% DMSO were added into each of the rest wells and 3 uL of compound solution was taken from the one-step higher concentration solution and mixed well with the DMSO. An intermediate compound dilution plate was made by mixing 4 uL of the compound solution from the compound master plate with 196 uL of no serum RPMI medium. hWBC or human whole blood was treated for 0.5 hour by adding 20 uL/well of the compound and the control solutions from the intermediate compound plate to the cell plate. 80 uL/well or 20 uL/well of stimulant were then added to the human whole blood or hWBC respectively. […] The supernatants were then collected and cytokine levels were measured with ELISA for TNFα (R&D Systems, #DY210) and IFNα (R&D Systems, #41100-2) per manufacturer's instruction.

[2] = test system: TNFα production in human whole blood; test: LPS induced TNFα production in human whole blood; assay type: cell-based; settings: 1 ug/mL LPS, 20 hours
Procedure: as §1, §2

[3] = test system: LPS induced TNF alpha production; test: Inhibition of LPS induced TNFα production in vivo; settings: female Lewis rats, dosed PO 2 hours prior to LPS IV, serum TNFα after 1 hr; minimum efficacious dose
Procedure: Selected compounds were tested in vivo in female Lewis rats for LPS induced TNF alpha production by dosing PO for 2 hours prior to LPS administration IV, followed by bleeding after 1 hr for measurement of TNFα produced in serum using ELISA (Biosource). […] Compounds having an activity designated as “A” provided a MED<5.0 mg/kg; compounds having an activity designated as “B” provided a MED of 5.0-20 mg/kg; compounds having an activity designated as “C” provided a MED of 20-50 mg/kg; compounds having an activity designated as “D” provided a MED of >50 mg/kg

| IC50 (IRAK4) [nM] | IC50 [1] [nM] | IC50 [2] [nM] | SMILES | MED (mg/kg) [3] |
| --- | --- | --- | --- | --- |
| ≤ 5000 | ≤ 250 | ≤ 250 | N#Cc1ccc2ncnc(N[C@H]3CC[C@H](N4CCOCC4)CC3)c2c1 [Compound I-3, 4-(((1r,4r)-4-morpholinocyclohexyl)amino)quinazoline-6-carbonitrile] | C (MED of 20-50 mg/kg) |
| ≤ 5000 | ≤ 250 | ≤ 250 | N#Cc1ccc2ncnc(N[C@H]3CC[C@H](N4CCC5(CC4)CC5)CC3)c2c1 [Compound I-7, 4-(((1r,4r)-4-(6-azaspiro[2.5]octan-6-yl)cyclohexyl)amino)-quinazoline-6-carbonitrile] | A (MED<5.0 mg/kg) |

— US20150329498A1, “IRAK INHIBITORS AND USES THEREOF” (Nimbus Iris, Inc., priority 2014, published 2015)
